Data taken from EP2758382B1, “HETEROCYCLOCARBONYLAMINOTHIAZOLES, COSMETIC AND DERMATOLOGICAL PREPARATIONS CONTAINING THEM, AND THEIR USE FOR THE TREATMENT AND PROPHYLAXIS OF UNWANTED PIGMENTATION OF THE SKIN” (Beiersdorf AG, priority 2011, dated 2013).

These compounds were tested against T1, humane Tyrosinase (Homo sapiens, UniProt P14679) (assay: Enzyme test: conversion of L-DOPA to L-Dopachinon by human tyrosinase, MBTH detection, absorption at 490 nm). Settings: Konzentration 10 µg/mL; substrate L-DOPA.
T1 sequence (P14679 19-529): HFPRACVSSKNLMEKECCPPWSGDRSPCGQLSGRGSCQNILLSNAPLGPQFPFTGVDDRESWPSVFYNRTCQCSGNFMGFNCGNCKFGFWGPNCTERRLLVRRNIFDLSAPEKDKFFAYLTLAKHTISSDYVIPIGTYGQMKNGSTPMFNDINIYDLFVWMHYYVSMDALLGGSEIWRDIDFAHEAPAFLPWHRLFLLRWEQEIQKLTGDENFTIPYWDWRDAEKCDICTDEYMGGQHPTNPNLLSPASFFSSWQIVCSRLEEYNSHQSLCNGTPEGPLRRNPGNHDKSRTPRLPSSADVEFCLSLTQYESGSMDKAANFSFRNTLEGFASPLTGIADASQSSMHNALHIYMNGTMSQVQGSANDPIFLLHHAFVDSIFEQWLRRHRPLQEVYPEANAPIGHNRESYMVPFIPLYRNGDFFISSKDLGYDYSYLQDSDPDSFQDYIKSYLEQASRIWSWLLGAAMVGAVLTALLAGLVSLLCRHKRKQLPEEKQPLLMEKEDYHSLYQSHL
Format: biochemical
Excerpt: Die Wirksamkeit der Thiazole wurde mit einem Enzymtest belegt, in der Umsatz von L-DOPA zu L-Dopachinon durch eine humane Tyrosinase gemessen wurde. Bei dieser literaturbekannten Methode (Winder, A.J. and Harris, H., New assays for the tyrosine hydroxylase and dopa oxidase activities of tyrosinase. Eur. J. Blochem. (1991), 198, 317-26) wird das Reaktionsprodukt L-Dopaquinone mit MBTH (3-methyl-2-benzothiazoline hydrazone) zu einer pinkfarbenen Substanz umgesetzt, deren Zunahme über die Zeit durch Absorption bei 490 nm gemessen wird. In Tabelle ein sind Wirksamkeitsdaten für einige der beanspruchten Substanzen beispielhaft dargestellt. Daraus lässt sich schließen, dass die erfindungsgemäßen Substanzen äußerst effektive pigmentierungs-inhibierende Substanzen sind.

Point of comparison: `Oc1ccc(-c2csc(N3CCOCC3)n2)c(O)c1` [4-(2-Morpholinothiazol-4-yl)benzen-1,3-diol], “Inhibition (% der Kontrolle)” value 91 % der Kontrolle. Against it:
- Oc1ccc(-c2csc(N3CCCCC3)n2)c(O)c1 [4-(2-(Piperidin-1-yl)thiazol-4-yl)benzen-1,3-diol] — lower, 82 % der Kontrolle
- O=C(Nc1nc(-c2ccc(O)cc2O)cs1)N1CCCCC1 [N-(4-(2,4-dihydroxyphenyl)thiazol-2-yl)piperidin-1-carboxamid] — higher, 97 % der Kontrolle
- CCN1CCN(C(=O)Nc2nc(-c3ccc(O)cc3O)cs2)CC1 [N-(4-(2,4-dihydroxyphenyl)thiazol-2-yl)-4-ethylpiperazin-1-carboxamid] — higher, 94 % der Kontrolle
- O=C(Nc1nc(-c2ccc(O)cc2O)cs1)N1CCNCC1 [N-(4-(2,4-dihydroxyphenyl)thiazol-2-yl)piperazin-1-carboxamid] — higher, 94 % der Kontrolle
- O=C(Nc1nc(-c2ccc(O)cc2O)cs1)N1CCOCC1 [N-(4-(2,4-dihydroxyphenyl)thiazol-2-yl)morpholin-4-carboxamid] — higher, 97 % der Kontrolle
- CCN1CCN(c2nc(-c3ccc(O)cc3O)cs2)CC1 [4-(2-(4-Ethylpiperazin-1-yl)thiazol-4-yl)benzen-1,3-diol] — the same, 91 % der Kontrolle
- Oc1ccc(-c2csc(N3CCNCC3)n2)c(O)c1 [4-(2-(Piperazin-1-yl)thiazol-4-yl)benzen-1,3-diol] — higher, 93 % der Kontrolle
